Laboratory results reported in patent US4774259A, “Phenylalanine derivatives and uses thereof” (Ajinomoto Co., Inc., priority 1985, dated 1988).

What was measured:
[1] = Absorption promoting test of insulin, oral, mice (Example 3): blood glucose value; type: in vivo, female ICR-CDI mice; settings: for decrease in the blood glucose value (in words): oral with insulin, compared with a control group
Protocol: A test for the promotion of the absorption of insulin was carried out upon the above-described absorption promoters and upon two known absorption promoting agents. Thus, insulin in a prescribed dose (23.3 unit/mg) and the absorption promoter, as given in the Table below, were dissolved or suspended in a 0.05M phosphate buffer. Then groups of five female ICR-CDI mice, 6 to 7 weeks old, which had not been fed for 18 hours, were orally administered with the predetermined buffer solution (0.5 ml). A predetermined time later, the blood glucose value of each group of mice was determined.

male ICR mice = assay: Toxicity test, oral LD50, mice (Example 4); type: in vivo; settings: compared with known absorption promoting agents
Protocol: Predetermined amounts of the absorption promoters listed in the Table were each suspended in 0.5% CMC sodium salt solution. Groups of ten male ICR mice, 4 weeks old, were orally administered with the suspension. Two weeks thereafter, the LD50 values were determined.

[2] = Absorption promoting test of insulin, oral, mice (Example 7): blood glucose and immunoreactive insulin; type: in vivo, female ICR-CDl mice; settings: for Decrease in Blood Glucose / Degree of increase of Blood Insulin: insulin 0.5 unit/10 g, promoter 3 mg/10 g, oral, compared with phosphate buffer control; for effect on decreasing the blood glucose value and increasing the blood insulin level (in words): oral with insulin
Protocol: A test for the absorption of insulin was carried out with absorption promoters of the present invention. Thus, insulin (0.5 unit/10 g weight) and the absorption promoter (3 mg/10 g weight) were suspended in a 0.05M phosphate buffer. Then the group of five female ICR-CDl mice, 5 to 7 weeks old, which were fasted for 18 hours, were orally administered with the prepared suspension.
The blood glucose value and the immunoreactive insulin level of each group of mice were determined at the fixed time.
The percent decrease in blood glucose and the degree of increase of blood insulin as compared with a phosphate buffer control group were shown in Table 2.

Row | SMILES | Blood Glucose ([1]; insulin 50 unit/kg, absorption promoter 150 mg/kg, oral, 30 minutes, control 82.4 ± 8.1) [mg/dL] | decrease in the blood glucose value (in words) [1] | LD50 value (in words) (male ICR mice) | Decrease in Blood Glucose ([2]; 15 minutes) [%] | Degree of increase of Blood Insulin ([2]; 15 minutes) | Decrease in Blood Glucose ([2]; 30 minutes) [%] | Degree of increase of Blood Insulin ([2]; 30 minutes) | Decrease in Blood Glucose ([2]; 60 minutes) [%] | Degree of increase of Blood Insulin ([2]; 60 minutes) | effect on decreasing the blood glucose value and increasing the blood insulin level (in words) [2]
1 | Cc1ccc(C=CC(=O)N[C@@H](Cc2ccccc2)C(=O)O)cc1 [N-(4-methylcinnamoyl)-L-phenylalanine] | 78.0 ± 7.8 | small |  |  |  |  |  |  |  | 
2 | Cc1ccc(C=C(F)C(=O)N[C@H](Cc2ccccc2)C(=O)O)cc1 [N-(α-fluoro-4-methylcinnamoyl)-D-phenylalanine] |  | excellent effect in decreasing the blood glucose value | excellent LD50 value |  |  |  |  |  |  | 
3 | Cc1ccc(C=C(F)C(=O)N[C@@H](Cc2ccccc2)C(=O)O)cc1 [N-(α-fluoro-4-methylcinnamoyl)-L-phenylalanine] |  | excellent effect in decreasing the blood glucose value | excellent LD50 value |  |  |  |  |  |  | 
4 | O=C(N[C@@H](Cc1ccccc1)C(=O)O)C(F)=Cc1ccccc1 [N-(α-fluorocinnamoyl)-L-phenylalanine] |  | small |  |  |  |  |  |  |  | 
5 | Cc1ccc(C(Cl)=CC(=O)N[C@H](Cc2ccccc2)C(=O)O)cc1 [N-(β-chloro-4-methylcinnamoyl)-D-phenylalanine] |  |  |  | 35.7 | 2.1 | 47.8 | 3.3 | 42.8 | 1.0 | excellent effect on decreasing the blood glucose value and increasing the blood insulin level
6 | Cc1ccc(C(Cl)=CC(=O)N[C@@H](Cc2ccccc2)C(=O)O)cc1 [N-(β-chloro-4-methylcinnamoyl)-L-phenylalanine] |  |  |  | 42.1 | 10.5 | 21.6 | 2.0 | 12.1 | 2.1 | excellent effect on decreasing the blood glucose value and increasing the blood insulin level
